Experiment [1] addresses T1, hPI3Kβ (PIK3CB wt/PIK3R1) (Homo sapiens, UniProt P42338).
T1 construct: purchased ProQinase, Germany 1168‐1165‐1
Put plainly: lipid kinase assay (ADP-Glo), PI3Kβ. The format is biochemical. Here is the method: (§1) In vitro selection, lipid kinase assay: To determine the inhibitory activity of the new molecular entities on PI3K enzyme, a lipid kinase assay was performed: recombinant proteins (30 ng), human PI3Kα (PIK3CA/PIK3R1, #1161‐1165‐1 ProQinase–Germany), hPI3Kβ (PIK3CB wt/PIK3R1, #1168‐1165‐1 ProQinase, Germany), hPI3Kγ (PIK3CG, #1163‐0000‐1 ProQinase, Germany), hPI3Kδ (PIK3CD/PIK3R1, #1162–1165‐1 ProQinase, Germany), hPI3K‐C2α (PIK3C2A, #14‐906 Merck Millipore_Merck KGaA, Germany), hPI3K‐C2β (PIK3C2B, #14‐907 Merck Millipore_Merck KGaA, Germany), hPI3K‐c2γ (PIK3C2G, #1207‐0000‐1 ProQinase, Germany), and hVps34 (PIK3C3, #1160‐0000‐1 ProQinase, Germany), were incubated in kinase buffer {12.5 μL; 20 mM Tris‐HCl pH 7.5, 10 mM MgCl2, 10 μM ATP, 0.05 mg mL^−1 BSA, 0.5 mM EDTA, 5 mM HEPES pH 7.5, for PI3Kα,PI3Kβ, PI3Kγ, PI3Kδ, PI3KC‐2α, and PI3KC‐2γ; 15 mM MnCl2, 5 mM EGTA, 100 μM ATP, 50 mM HEPES pH 7.5, 100 mM NaCl, and 0.03 % CHAPS for PI3K‐C2β and VPS34 {BSA=bovine serum albumin; EDTA=ethylenediaminetetraacetic acid; HEPES=4‐(2‐hydroxyethyl)‐1‐piperazineethanesulfonic acid; EGTA=ethylene glycol‐bis(2‐aminoethylether)‐N,N,N′,N′‐tetraacetic acid; CHAPS=3‐[(3‐cholamidopropyl)dimethylammonio]‐1‐propanesulfonate}. In the reaction, the ATP concentration used for different PI3Ks was defined on the basis of the Michaelis–Menten kinetics of each enzyme, provided by the supplier. Reaction was performed in presence of 0.5 mg mL^−1 lipid micelles (1:1 phosphatidylinositol/phosphatidylserine) and in the absence (DMSO alone) or presence of increasing concentrations of each compound (from 0.1 nM to 30 μM). The mixture was kept at room temperature (RT) for 30 min for PI3Kα, PI3Kβ, PI3Kγ, PI3Kδ, PI3KC‐2α, and PI3KC‐2γ and for 1 h for PI3K‐C2β and PI3K‐C3. The amount of ADP produced in the reaction was measured by using the ADP‐Glo Kinase Assay kit from Promega (#V9102) and a luminescence reader (Glomax multi detection system, Promega, model number 9301‐010).
The residual PI3K lipid kinase activity in the presence of each molecule at different concentrations was related to the control, intended as the recombinant protein in the presence of DMSO alone and was expressed as a percentage. To derive the IC50 value, all data (% of lipid kinase activity) were plotted on a dose–response curve (Graph Pad software), and the IC50 was calculated by using nonlinear regression fit (equation [log agonist] versus response).

Another experiment has as its target T2, hPI3K‐c2γ (PIK3C2G) (Homo sapiens, UniProt O75747).
T2 construct: purchased ProQinase, Germany 1207‐0000‐1
T2 sequence (O75747 1-1486): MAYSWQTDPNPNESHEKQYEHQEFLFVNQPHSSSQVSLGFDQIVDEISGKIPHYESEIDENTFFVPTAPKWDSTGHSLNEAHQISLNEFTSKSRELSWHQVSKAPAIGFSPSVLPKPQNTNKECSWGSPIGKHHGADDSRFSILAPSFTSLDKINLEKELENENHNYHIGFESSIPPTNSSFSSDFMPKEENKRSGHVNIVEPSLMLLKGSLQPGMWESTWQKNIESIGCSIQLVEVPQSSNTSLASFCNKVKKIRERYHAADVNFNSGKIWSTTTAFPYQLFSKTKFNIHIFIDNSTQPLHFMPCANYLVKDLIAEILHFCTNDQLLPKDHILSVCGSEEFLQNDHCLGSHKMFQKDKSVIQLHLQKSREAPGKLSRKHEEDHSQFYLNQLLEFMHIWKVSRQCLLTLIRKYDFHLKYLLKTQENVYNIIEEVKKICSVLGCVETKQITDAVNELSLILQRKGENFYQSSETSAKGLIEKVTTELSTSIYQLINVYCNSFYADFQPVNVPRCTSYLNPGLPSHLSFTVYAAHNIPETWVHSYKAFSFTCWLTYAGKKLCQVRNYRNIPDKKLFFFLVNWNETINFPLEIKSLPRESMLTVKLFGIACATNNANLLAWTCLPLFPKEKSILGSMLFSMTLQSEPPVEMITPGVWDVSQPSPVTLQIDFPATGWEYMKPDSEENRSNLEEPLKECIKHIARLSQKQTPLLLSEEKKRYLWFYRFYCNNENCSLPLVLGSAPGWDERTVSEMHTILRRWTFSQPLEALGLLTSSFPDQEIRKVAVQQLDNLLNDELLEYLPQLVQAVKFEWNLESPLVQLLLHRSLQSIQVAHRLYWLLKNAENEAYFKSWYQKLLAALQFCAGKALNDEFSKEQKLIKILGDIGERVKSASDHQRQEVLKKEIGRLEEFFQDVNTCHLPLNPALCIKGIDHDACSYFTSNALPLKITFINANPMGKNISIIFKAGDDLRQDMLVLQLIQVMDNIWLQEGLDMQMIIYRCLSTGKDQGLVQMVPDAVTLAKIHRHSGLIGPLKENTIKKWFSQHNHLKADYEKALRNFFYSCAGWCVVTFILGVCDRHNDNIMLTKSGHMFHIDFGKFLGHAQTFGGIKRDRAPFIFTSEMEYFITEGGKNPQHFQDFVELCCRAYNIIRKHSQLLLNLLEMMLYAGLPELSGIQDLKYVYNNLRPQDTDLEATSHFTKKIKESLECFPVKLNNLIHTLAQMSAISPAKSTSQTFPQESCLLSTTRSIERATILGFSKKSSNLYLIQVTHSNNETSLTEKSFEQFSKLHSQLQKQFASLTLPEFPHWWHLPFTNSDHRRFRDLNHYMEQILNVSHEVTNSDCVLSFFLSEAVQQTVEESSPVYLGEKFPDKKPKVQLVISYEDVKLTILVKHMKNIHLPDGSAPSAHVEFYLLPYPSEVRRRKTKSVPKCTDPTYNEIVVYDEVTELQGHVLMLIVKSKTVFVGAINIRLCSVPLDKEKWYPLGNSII
The experiment is described as follows: lipid kinase assay (ADP-Glo), PI3K-C2γ. The settings on record: Table 2; mean of at least three determinations, 95 % confidence intervals; read-out: IC50 PI3Kc2γ. The format is biochemical. Here is the method:
as §1, with “Reaction was performed in presence of 0.5 mg mL^−1 lipid micelles (1:1 phosphatidylinositol/phosphatidylserine) and in the absence (DMSO alone) or presence of increasing concentrations of each compound (from 0.1 nM to 30 μM). The mixture was kept at room temperature (RT) for 30 min for PI3Kα, PI3Kβ, PI3Kγ, PI3Kδ, PI3KC‐2α, and PI3KC‐2γ and for 1 h for PI3K‐C2β and PI3K‐C3. The amount of ADP produced in the reaction was measured by using the ADP‐Glo Kinase Assay kit from Promega (#V9102) and a luminescence reader (Glomax multi detection system, Promega, model number 9301‐010).” left out

T1 sequence (P42338 whole entry): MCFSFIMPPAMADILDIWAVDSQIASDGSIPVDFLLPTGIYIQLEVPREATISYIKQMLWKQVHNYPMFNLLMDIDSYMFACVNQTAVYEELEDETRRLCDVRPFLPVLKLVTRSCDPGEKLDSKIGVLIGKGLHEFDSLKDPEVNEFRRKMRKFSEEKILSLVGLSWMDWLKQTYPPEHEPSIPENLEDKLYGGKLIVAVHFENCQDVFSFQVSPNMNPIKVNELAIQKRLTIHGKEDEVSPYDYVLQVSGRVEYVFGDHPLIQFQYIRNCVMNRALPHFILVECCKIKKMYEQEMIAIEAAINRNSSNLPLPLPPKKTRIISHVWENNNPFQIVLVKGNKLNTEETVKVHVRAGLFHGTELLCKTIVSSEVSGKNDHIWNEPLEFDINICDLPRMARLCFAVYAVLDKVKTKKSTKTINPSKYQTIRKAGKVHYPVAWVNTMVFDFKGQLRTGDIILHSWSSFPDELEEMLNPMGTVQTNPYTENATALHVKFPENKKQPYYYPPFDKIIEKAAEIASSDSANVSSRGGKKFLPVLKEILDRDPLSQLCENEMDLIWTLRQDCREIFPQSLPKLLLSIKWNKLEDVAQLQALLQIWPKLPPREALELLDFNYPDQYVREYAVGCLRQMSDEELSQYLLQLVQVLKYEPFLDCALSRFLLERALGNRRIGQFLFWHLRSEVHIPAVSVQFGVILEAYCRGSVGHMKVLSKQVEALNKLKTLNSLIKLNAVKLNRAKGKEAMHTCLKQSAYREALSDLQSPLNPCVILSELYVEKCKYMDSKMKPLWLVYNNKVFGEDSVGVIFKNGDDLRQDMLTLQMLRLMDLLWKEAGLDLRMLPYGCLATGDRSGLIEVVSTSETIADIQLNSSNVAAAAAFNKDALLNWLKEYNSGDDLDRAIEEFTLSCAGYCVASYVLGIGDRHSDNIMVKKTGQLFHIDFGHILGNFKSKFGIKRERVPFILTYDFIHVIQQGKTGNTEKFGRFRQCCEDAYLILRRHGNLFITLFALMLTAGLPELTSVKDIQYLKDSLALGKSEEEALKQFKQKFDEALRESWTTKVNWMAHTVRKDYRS
T1 sequence (P27986 whole entry partner): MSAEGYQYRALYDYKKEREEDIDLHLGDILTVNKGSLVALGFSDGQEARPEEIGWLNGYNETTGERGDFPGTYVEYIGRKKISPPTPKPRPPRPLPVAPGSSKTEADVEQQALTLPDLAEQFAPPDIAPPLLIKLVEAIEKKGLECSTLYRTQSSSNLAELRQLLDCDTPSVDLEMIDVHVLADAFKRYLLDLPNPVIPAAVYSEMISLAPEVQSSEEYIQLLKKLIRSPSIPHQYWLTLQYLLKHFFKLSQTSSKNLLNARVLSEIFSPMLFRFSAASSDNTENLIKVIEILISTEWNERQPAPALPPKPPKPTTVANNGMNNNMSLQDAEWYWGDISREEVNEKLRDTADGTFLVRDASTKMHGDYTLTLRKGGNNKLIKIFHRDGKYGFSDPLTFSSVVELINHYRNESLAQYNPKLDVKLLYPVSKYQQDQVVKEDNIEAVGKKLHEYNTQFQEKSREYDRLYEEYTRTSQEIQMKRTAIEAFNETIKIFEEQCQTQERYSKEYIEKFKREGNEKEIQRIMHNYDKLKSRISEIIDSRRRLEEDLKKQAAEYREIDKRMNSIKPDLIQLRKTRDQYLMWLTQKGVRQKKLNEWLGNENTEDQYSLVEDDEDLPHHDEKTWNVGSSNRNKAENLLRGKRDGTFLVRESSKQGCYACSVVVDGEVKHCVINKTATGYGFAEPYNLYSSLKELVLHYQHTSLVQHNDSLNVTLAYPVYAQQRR

On to `O=C(O)c1cccc(Cn2cc(-c3cccc4c(=O)cc(N5CCOCC5)[nH]c34)nn2)c1` [Compound 37, 3‐{[4‐(2‐Morpholino‐4‐oxo‐1,4‐dihydroquinolin‐8‐yl)‐1H‐1,2,3‐triazol‐1‐yl]methyl}benzoic acid], for which the half-inhibitory concentration (IC50) in experiment [1] (Table 2, mean of at least three determinations, 95 % confidence intervals) is 59 ± 15 nM; on hPI3K‐c2γ (PIK3C2G), 2800 ± 700 nM. The inhibition at 1 µM in experiment [1] (determined at 1 μM, at least triplicate, read-out: Inhibitory activity, PI3K isoform β) was more than 50%.

The values above are taken from publication PMC5697638, “Identification of a Potent Phosphoinositide 3‐Kinase Pan Inhibitor Displaying a Strategic Carboxylic Acid Group and Development of Its Prodrugs” (Chemmedchem, 2017).
